Experimental data published in patent publication US7223865B2, “Chromogenic compounds, and use thereof as enzyme substrates” (Biomerieux, priority 2003, dated 2007).

Key:
Test in all cases: L-alanine-aminopeptidase activity on gelled medium, Example 8
Assay type in all cases: cell-based
Design in all cases: key to growth: ++ means good growth; + means moderate growth; +/− means poor growth; NG means no growth
[1] = test system: Salmonella typhimurium (NCTC 74)
Protocol: (§1) A gelled medium comprising these three substrates is prepared as follows: 30 mg of each substrate are dissolved (heating) in 10 ml of sterile distilled water. Ten ml of this solution are then added to 90 ml of Columbia agar kept molten at 50° C.
(§2) Various strains of microorganisms derived from the NCTC collection (National Collection of Type Cultures, Colindale, UK) were seeded onto the media thus obtained according to multipoint inoculation: for each strain, a drop of 10 μl of a suspension at 0.5 McFarland is deposited onto each of the culture media.
(§3) The colonies formed were examined visually after incubation for 24 h and 48 h. The color and the growth of these colonies were noted.

[2] = test system: Pseudomonas aeruginosa (NCTC 10662)
Protocol: as §1, §2, §3

[3] = test system: Listeria monocytogenes (NCTC 11994)
Protocol: as §1, §2, §3

[4] = test system: Shigella sonnei (NCTC 9774)
Protocol: as §1, §2, §3

[5] = test system: Enterobacter cloacae (NCTC 11936)
Protocol: as §1, §2, §3

[6] = test system: Serratia marcescens (NCTC 10211)
Protocol: as §1, §2, §3

[7] = test system: Staphylococcus aureus (NCTC 6571)
Protocol: as §1, §2, §3

[8] = test system: Enterococcus faecalis (NCTC 755)
Protocol: as §1, §2, §3

[9] = test system: Salmonella poona (NCTC 4840)
Protocol: as §1, §2, §3

[10] = test system: Klebsiella pneumoniae (NCTC 10896)
Protocol: as §1, §2, §3

[11] = test system: Enterococcus faecium (NCTC 7171)
Protocol: as §1, §2, §3

[12] = test system: Burkholderia cepacia (NCTC 10743)
Protocol: as §1, §2, §3

[13] = test system: E. coli O157 (NCTC 12079)
Protocol: as §1, §2, §3

[14] = test system: Staphylococcus aureus (NCTC 11939)
Protocol: as §1, §2, §3

[15] = test system: Enterococcus faecalis (NCTC 12697)
Protocol: as §1, §2, §3

SMILES: C[C@H](N)C(=O)N[C@@H](C)C(=O)Nc1ccc(-c2c3ccccc3[n+](C)c3ccccc23)cc1.[Cl-] [L-Ala-L-Ala-4-AP-10-MA]
- color of colonies ([1]; 24 h): Orange
- growth ([1]; 24 h): ++
- color of colonies ([1]; 48 h): Orange
- growth ([1]; 48 h): ++
- color of colonies ([2]; 24 h): Orange
- growth ([2]; 24 h): ++
- color of colonies ([2]; 48 h): Orange
- growth ([2]; 48 h): ++
- color of colonies ([3]; 24 h): Colorless
- growth ([3]; 24 h): ++
- color of colonies ([3]; 48 h): Colorless
- growth ([3]; 48 h): ++
- color of colonies ([4]; 24 h): Orange
- growth ([4]; 24 h): ++
- color of colonies ([4]; 48 h): Orange
- growth ([4]; 48 h): ++
- color of colonies ([5]; 24 h): Orange
- growth ([5]; 24 h): ++
- color of colonies ([5]; 48 h): Orange
- growth ([5]; 48 h): ++
- color of colonies ([6]; 24 h): Orange
- growth ([6]; 24 h): ++
- color of colonies ([6]; 48 h): Orange
- growth ([6]; 48 h): ++
- growth ([7]; 24 h): NG
- growth ([7]; 48 h): NG
- color of colonies ([8]; 24 h): Colorless
- growth ([8]; 24 h): ++
- color of colonies ([8]; 48 h): Colorless
- growth ([8]; 48 h): ++
- color of colonies ([9]; 24 h): Orange
- growth ([9]; 24 h): ++
- color of colonies ([9]; 48 h): Orange
- growth ([9]; 48 h): ++
- color of colonies ([10]; 24 h): Orange
- growth ([10]; 24 h): ++
- color of colonies ([10]; 48 h): Orange
- growth ([10]; 48 h): ++
- color of colonies ([11]; 24 h): Colorless
- growth ([11]; 24 h): ++
- color of colonies ([11]; 48 h): Colorless
- growth ([11]; 48 h): ++
- color of colonies ([12]; 24 h): Orange
- growth ([12]; 24 h): ++
- color of colonies ([12]; 48 h): Orange
- growth ([12]; 48 h): ++
- color of colonies ([13]; 24 h): Orange
- growth ([13]; 24 h): ++
- color of colonies ([13]; 48 h): Orange
- growth ([13]; 48 h): ++
- color of colonies ([14]; 24 h): Colorless
- growth ([14]; 24 h): ++
- color of colonies ([14]; 48 h): Colorless
- growth ([14]; 48 h): ++
- color of colonies ([15]; 24 h): Colorless
- growth ([15]; 24 h): ++
- color of colonies ([15]; 48 h): Colorless
- growth ([15]; 48 h): ++

SMILES: C[C@H](N)C(=O)N[C@@H](C)C(=O)N[C@@H](C)C(=O)Nc1ccc(-c2c3ccccc3[n+](C)c3ccccc23)cc1.[Cl-] [L-Ala-L-Ala-L-Ala-4-AP-10-MA]
- color of colonies ([1]; 24 h): Orange
- growth ([1]; 24 h): ++
- color of colonies ([1]; 48 h): Orange
- growth ([1]; 48 h): ++
- color of colonies ([2]; 24 h): Orange
- growth ([2]; 24 h): ++
- color of colonies ([2]; 48 h): Orange
- growth ([2]; 48 h): ++
- color of colonies ([3]; 24 h): Colorless
- growth ([3]; 24 h): ++
- color of colonies ([3]; 48 h): Colorless
- growth ([3]; 48 h): ++
- color of colonies ([4]; 24 h): Orange
- growth ([4]; 24 h): ++
- color of colonies ([4]; 48 h): Orange
- growth ([4]; 48 h): ++
- color of colonies ([5]; 24 h): Orange
- growth ([5]; 24 h): ++
- color of colonies ([5]; 48 h): Orange
- growth ([5]; 48 h): ++
- color of colonies ([6]; 24 h): Orange
- growth ([6]; 24 h): ++
- color of colonies ([6]; 48 h): Orange
- growth ([6]; 48 h): ++
- color of colonies ([7]; 24 h): Colorless
- growth ([7]; 24 h): ++
- color of colonies ([7]; 48 h): Colorless
- growth ([7]; 48 h): ++
- color of colonies ([8]; 24 h): Colorless
- growth ([8]; 24 h): ++
- color of colonies ([8]; 48 h): Colorless
- growth ([8]; 48 h): ++
- color of colonies ([9]; 24 h): Orange
- growth ([9]; 24 h): ++
- color of colonies ([9]; 48 h): Orange
- growth ([9]; 48 h): ++
- color of colonies ([10]; 24 h): Orange
- growth ([10]; 24 h): ++
- color of colonies ([10]; 48 h): Orange
- growth ([10]; 48 h): ++
- color of colonies ([11]; 24 h): Colorless
- growth ([11]; 24 h): ++
- color of colonies ([11]; 48 h): Colorless
- growth ([11]; 48 h): ++
- color of colonies ([12]; 24 h): Orange
- growth ([12]; 24 h): ++
- color of colonies ([12]; 48 h): Orange
- growth ([12]; 48 h): ++
- color of colonies ([13]; 24 h): Orange
- growth ([13]; 24 h): ++
- color of colonies ([13]; 48 h): Orange
- growth ([13]; 48 h): ++
- color of colonies ([14]; 24 h): Colorless
- growth ([14]; 24 h): ++
- color of colonies ([14]; 48 h): Colorless
- growth ([14]; 48 h): ++
- color of colonies ([15]; 24 h): Colorless
- growth ([15]; 24 h): ++
- color of colonies ([15]; 48 h): Colorless
- growth ([15]; 48 h): ++
